# From patent US10525044B2, “Treatment for chemotherapy-induced peripheral neuropathy” (priority 2013, dated 2020)
# “And” between values parts separate entries of the source, which are not always exact repeats. Identical values can stand only once. “Also recorded” adds a separate entry of the source.
# Tests used:
# [1] = system: ischemic neurodegeneration; settings: 0.45 μM; cited from earlier work
# [2] = system: intramitochondrial ROS in neurons; assay: ROS examination with DHR 123 in neurons; format: cell-based, Sprague-Dawley rats; settings: 10 μM PAN-811; 100 μM MTX and 25 μM 5-FU; 1 day
# Excerpt: Neuronal Cell Culture. […] Since AOs, including vitamin E, vitamin E acetate, superoxide dismutase (SOD), catalase (CAT), and GSH, are additives to culture medium, reduction of AO concentration in culture medium provides an approach to determine the level of OS involvement in a neurotoxic process. In our study, the culture medium was replaced at a 50% ratio with NB plus B27 minus AOs twice at days 7 and 9 to set AO concentrations as 50% and 25%, respectively. […] Cell Insults and Treatments. Determination of concentration for each anticancer drug in our experiments was based on its reported concentration in human cerebral spinal fluid (CSF) in chemotherapy, literature report of its neurotoxicity in culture, and our preliminary in vitro experimental data. […] For ROS examination, the neurons were insulted with both 100 μM of MTX and 25 μM of 5-FU by 15 d.i.v. […] ROS Examination. […] Fluorescence was photographed by using a fluorescentmicroscope and quantified by excitation at 485 nm and emission at 520 nm using a 96-well plate reader (Model 550, Bio-Rad). […] Data were generated from 4-6 replicate wells, expressed as mean±standard deviation (SD), and statistically evaluated at a significance level of 1% with one factor ANOVA or Student's t-test by using software […] […]
# [3] = system: mouse liver cancer cell line BNLT3; assay: Cell density of BNLT3 cells (phase contrast); format: cell-based
# Protocol: (§1) Cancer Cell Culture. The mouse liver cancer cell line BNLT3 (gift of Dr. Jack Wands, Brown University) and the human lung cancer cell line H460 (ATCC) were seeded into 96-well plates at a density of 4,000 cells/well and cultured at 37° C., 5% CO2, in DMEM (11965, Gibco) supplemented with 10% fetal bovine serum, 20 mM HEPES, 1 mM sodium pyruvate, and […] gentamycin (all reagents came from Gibco).
# (§2) Cell Insults and Treatments. Determination of concentration for each anticancer drug in our experiments was based on its reported concentration in human cerebral spinal fluid (CSF) in chemotherapy, literature report of its neurotoxicity in culture, and our preliminary in vitro experimental data. At 13 d.i.v., the neuronal cell cultures were insulted with 100 μM of MTX (M9929, Sigma), 25 μM of 5-FU (F6627, Sigma), or 3.5 μM of CDDP (sc-200896, Santa Cruz) for 3 days in absence or presence of PAN 811.Cl.H2O. For ROS examination, the neurons were insulted with both 100 μM of MTX and 25 μM of 5-FU by 15 d.i.v. PAN-811.Cl.H2O was added to cultures to final concentrations of 1.25, 2.5, 5, and 10 μM at the same time as addition of the anticancer drugs. For cancer cell lines, the cells were insulted by the second day of cell seeding with the same concentration of MTX, 5-FU, or CDDP as used in neuronal culture in the absence or presence of 10 μM PAN-811.Cl.H2O for another 3 days.
# (§3) Quantitative Assays and Morphological Assessment. Cell membrane integrity and mitochondrial function of either neurons or cancer cells were measured with LDH and 3-(4,5-dimethylthiazol-2-yl)-5-(3-carboxymethoxyphenyl)-2-(4-sulfophenyl)-2H-tetrazolium [MTS] analyses, respectively. The latter has been used to quantify cell survival. For the LDH assay, a mixture of a 35 μL aliquot of culture supernatant and 17.5 μL of Mixed Substrate, Enzyme and Dye Solutions (Sigma) was incubated at room temperature (RT) for 30 minutes. For the MTS assay, 10 μL of MTS reagent (Promega) was added to a culture well containing neurons in 50 μL of medium. The preparations were incubated at 37° C. for 2 hours. The preparations for both assays were then spectrophotometrically measured at 490 nm using a 96-well plate reader (Mode 550, Bio-Rad). Neuronal cell death was morphologically determined based on the integrity of the cell soma and continuity of neuronal processes. The change in number of cancer cells was judged directly by cell density. Cells were photographed under an inverted phase contrast microscope (IX 70, Olympus) using 10× or 20× objective.
# [4] = system: intracellular free calcium; settings: 5 μM; ischemic condition (19-fold increase); cited from earlier work
# [5] = cell-free system, EDTA as positive control; cited from earlier work
# [6] = system: human lung cancer cell line H460; assay: MTS assay in H460 cancer cells; format: cell-based
# Protocol: as §1, §2, §3
# Data Analysis. Data were generated from 4-6 replicate wells, expressed as mean±standard deviation (SD), and statistically evaluated at a significance level of 1% with one factor ANOVA or Student's t-test by using software VASSARSTATS (http://vassarstats.net/) followed by the Tukey HSD test. Figure symbols are as follows: #, P<0.05, and ##, P<0.01, compared with control; *, P<0.05, and **, P<0.01, compared with the insulted group; §§, P<0.01, compared with PAN-811 treated group by Student's t-test.
# cultured neuronal cells = settings: cited from earlier work
# [7] = system: human Alzheimer's disease-derived and age-matched olfactory neuroepithelial cells; settings: via suppression of intracellular reactive oxygen species; cited from earlier work
# [8] = 3.5 μM CDDP and 10 μM PAN-811, 3 days
# [9] = 25 μM 5-FU and 10 μM PAN-811, 3 days
# [10] = 100 μM MTX and 10 μM PAN-811, 3 days
# [11] = each agent alone, 3 days: MTX 100 μM, 5-FU 25 μM, CDDP 3.5 μM, PAN-811 10 μM
smiles,measurement,setting,value
"NC(=S)N/N=C/c1ncccc1N [PAN-811, 3-aminopyridine-2-carboxaldehyde thiosemicarbazone]",ischemic neurodegeneration,[1],fully blocked
same,suppression rate of increased ROS (DHR123),[2],62.3%
same,"cell density, cotreatment with CDDP",[3]; [8],significant reduction in the cell density
same,"cell number, cotreatment with 5-FU",[3]; [9],significantly decreased the cell number
same,"cell density, cotreatment with MTX",[3]; [10],cell density was also much lower than that in no-insult control
same,cell density / cancer cell number,[3]; [11],cell density was also much lower than that in no-insult control; also recorded: significant reduction in the cell density
same,reduction of elevated intracellular free calcium,[4],72%
same,chelation of free calcium,[5],as efficiently as EDTA
same,interaction with CDDP on suppression of H460 growth,[6]; 3.5 μM CDDP and 10 μM PAN-811,synergistic effect
same,"reduction of MTS reading, cotreatment with CDDP",[6]; [8],85%
same,"inhibition of the effect of MTX, 5-FU, or CDDP on cell growth of H460 cells",[6]; 10 μM PAN-811,did not show any inhibition
same,interaction with 5-FU on suppression of H460 growth,[6]; 25 μM 5-FU and 10 μM PAN-811,synergistic effect
same,"reduction of MTS reading, cotreatment with 5-FU",[6]; [9],84%
same,"MTS reading, cotreatment with MTX",[6]; [10],about the same as 10 μM PAN-811 alone
same,reduction of MTS reading,[6]; [11],76% and 74% and 75%
same,neuroprotection against glutamate insult,cultured neuronal cells; cells pretreated with 10 μM for 24 h,Nearly complete neuroprotection
same,glutamate-induced excitatory cytotoxicity,cultured neuronal cells,prevents
same,oxidative stress-induced cell death,[7],inhibited
